Test results: patent publication US20050043341A1, “3-'Hydroxy-(-4-trifluoromethylphenyl)-methyl-7-spirocyclobutyl-5,6,7 8-tetrahydroquinolin-5-ol derivatives and the use of the same as cholesterol ester transfer protein (cetp) inhibitors” (priority 2001, published 2005)
Where two headings read alike, the source gives them in different places.

Tests used:
CETP = biological target: T1, CETP (Homo sapiens, UniProt P11597); experiment: CETP fluorescence test; format: biochemical; settings: CETP from human plasma, 37° C., 4 hours; read-out: IC50 (nM) Fluor. test
T1 construct: CETP is obtained in partially purified form from human plasma; from tissue; host or cells: human plasma
T1 sequence (P11597 18-493): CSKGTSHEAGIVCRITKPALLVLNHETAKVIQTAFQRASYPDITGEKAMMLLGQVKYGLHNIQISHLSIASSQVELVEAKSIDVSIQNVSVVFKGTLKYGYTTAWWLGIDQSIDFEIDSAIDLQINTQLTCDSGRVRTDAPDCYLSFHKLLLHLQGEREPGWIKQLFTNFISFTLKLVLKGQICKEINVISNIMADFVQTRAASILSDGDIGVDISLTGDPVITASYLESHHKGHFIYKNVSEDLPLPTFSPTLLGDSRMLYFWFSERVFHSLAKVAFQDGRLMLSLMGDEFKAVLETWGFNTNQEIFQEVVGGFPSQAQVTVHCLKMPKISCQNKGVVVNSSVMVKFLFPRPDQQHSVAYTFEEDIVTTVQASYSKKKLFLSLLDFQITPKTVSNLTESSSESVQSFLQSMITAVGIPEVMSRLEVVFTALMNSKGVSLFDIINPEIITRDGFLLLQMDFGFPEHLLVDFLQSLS
Protocol: CETP is obtained in partially purified form from human plasma by differential centrifugation and column chromatography and used for the test. To this end, human plasma is adjusted to a density of 1.21 g per ml using NaBr and centrifuged at 4° C. at 50000 rpm for 18 h. The bottom fraction (d>1.21 g/ml) is applied to a Sephadex® Phenyl-Sepharose 4B (Pharmacia) column, washed with 0.15 M NaCl/0.001 M tris HCl pH 7.4 and then eluted with dist. water. Die CETP-active fractions are pooled, dialysed against 50 mM Na acetate pH 4.5 and applied to a CM-Sepharose® (Pharmacia) column. The mixture is then eluted using a linear gradient (0-1 M NaCl). The pooled CETP fractions are dialysed against 10 mM TrisHCl pH 7.4 and then further purified by chromatography on a Mono Q® column (Pharmacia).
Measurement of the CETP-catalysed transfer of a fluorescent cholesterol ester between liposomes—modified according to the procedure of Bisgaier et al., J. Lipid Res. 34, 1625 (1993).
For the production of the donor liposomes, 1 mg of cholesteryl 4,4-difluoro-5,7-dimethyl-4-bora-3a,4a-diaza-s-indacene-3-dodecanoate (cholesteryl BODIPY® FL C12, Molecular Probes) is dissolved in 600 μl of dioxane with 5.35 mg of triolein and 6.67 mg of phosphatidylcholine with gentle warming in an ultrasonic bath and this solution is added very slowly with ultrasonication to 63 ml of 50 mM tris/HCl, 150 mM NaCl, 2 mM EDTA buffer pH 7.3 at RT.
The suspension is then ultrasonicated under an N2 atmosphere for 30 minutes in the Braukson ultrasonic bath at about 50 watts, the temperature being kept at about 20° C.
The acceptor liposomes are obtained analogously from 86 mg of cholesteryl oleate, 20 mg of triolein and 100 mg of phosphatidylcholine dissolved in 1.2 ml of dioxane and 114 ml of above buffer by ultrasonication at 50 watts (20° C.) for 30 minutes.
For testing, a test mix consisting of 1 part of above buffer, 1 part of donor liposomes and 2 parts of acceptor liposomes is used.
80 μl of test mix are treated with 1-3 μg of enriched CETP fraction, obtained from human plasma by means of hydrophobic chromatography, and 2 μl of the substance to be investigated in DMSO and incubated at 37° C. for 4 hours.
The change in the fluorescence at 485/535 nm is a measure of the CE transfer; the inhibition of the transfer in comparison to the control batch without substance is determined.

[1] = biological target: T2, CETP activity in the serum (Homo sapiens, UniProt P11597); experiment: Ex vivo activities on transgenic hCETP mice (serum CETP activity after oral administration); settings: mouse, cholesteryl ester transport in serum
T2 construct: determination of its basal CETP activity in the serum; from tissue; host or cells: serum of transgenic hCETP mice
T2 sequence (P11597 18-493): T1 sequence (P11597 18-493)
Protocol: To test for CETP-inhibitory activity, the substances are administered orally using a stomach tube to transgenic hCETP mice of our own breeding (Dinchuk et al. BBA (1995) 1295-301). To this end, male mice are randomly assigned to groups having an equal number of animals, as a rule n=3, one day before the start of the experiment. Before administration of the substance, blood is taken from each mouse by puncture of the retroorbital venous plexus for the determination of its basal CETP activity in the serum (T1). The test substance is then administered to the animals using the stomach tube. At specific times after administration of the test substance, blood is taken from the animals by puncture a second time (T2), as a rule 1, or 3 and 6 h after substance administration, but if appropriate this can also be carried out at another time.
In order to be able to assess the inhibitory activity of a substance, for each time, i.e. 1 or 3 or 6 h, a corresponding control group is employed whose animals only receive the formulating agent without substance. In the control animals, the second blood sampling per animal is carried out as in the substance-treated animals in order to be able to determine the change in the CETP activity without inhibitor over the corresponding experimental time interval (1, 3 or 6 h).
After termination of the clotting, the blood samples are centrifuged and the serum is removed by pipette.
For the determination of the CETP activity, the cholesteryl ester transport over 4 h is determined. To this end, as a rule 2 μl of serum are employed in the test batch and the test is carried out as described under “CETP fluorescence test”.
The differences in the cholesteryl ester transport (pM CE*/h (T2)−pM CE*/h (T1)) are calculated for each animal and averaged in the groups. A substance which at one of the times reduces the cholesteryl ester transport by >30% is regarded as active.

[2] = 1 h after administration, read-out: % inhibition at 30 mg/kg, 1 h
[3] = 3 h after administration, read-out: % inhibition at 30 mg/kg, 3 h
[4] = 6 h after administration, read-out: % inhibition at 30 mg/kg, 6 h

Compound	IC50 (CETP)	inhibition at 30 mg/kg [1, 2]	inhibition at 30 mg/kg [1, 3]	inhibition at 30 mg/kg [1, 4]
CC(C)c1nc2c(c(-c3ccc(F)cc3)c1[C@@H](O)c1ccc(C(F)(F)F)cc1)[C@@H](O)CC1(CCC1)C2 [Example 51, (5S)-2-Isopropyl-4-(4-fluorophenyl)-3-[(S)-hydroxy-(4-trifluoromethylphenyl)-methyl]-7-spirocyclobutyl-5,6,7,8-tetrahydroquinolin-5-ol]	12 nM	72%	64%	60%
CC(C)c1nc2c(c(-c3ccccc3)c1[C@@H](O)c1ccc(C(F)(F)F)cc1)[C@@H](O)CC1(CCC1)C2 [Example 53, (5S)-2-Isopropyl-4-phenyl-3-[(S)-hydroxy-(4-trifluoromethylphenyl)-methyl]-7-spirocyclobutyl-5,6,7,8-tetrahydroquinolin-5-ol]	30 nM	69%	51%	44%
CC(C)c1nc2c(c(-c3cccs3)c1[C@@H](O)c1ccc(C(F)(F)F)cc1)[C@@H](O)CC1(CCC1)C2 [Example 61, (5S)-2-Isopropyl-4-(2-thienyl)-3-[(S)-hydroxy-(4-trifluoromethylphenyl)-methyl]-7-spirocyclobutyl-5,6,7,8-tetrahydroquinolin-5-ol]	30 nM	71%	49%	35%
